Broadly, the IC50 is the concentration needed to halve the response being measured.

One assay concerns the target SHV-1 β-lactamase (Klebsiella pneumoniae, UniProt P0AD64). Description: Cell-free β-lactamase inhibition study (nitrocefin hydrolysis). As to conditions: SHV-1; 10 min pre-incubation at 37° C., nitrocefin substrate; read-out: IC50. The class given is biochemical. As for the experimental part:
(§1) Cell-Free-β-Lactamase Inhibition Study
(§2) Assays are performed with β-lactamases expressed in the pET system (Novagen, San Diego, Calif.) without signal peptides. They contain an N-terminal hexa-Histidine tag that is used for purification on Ni-NTA (Qiagen, Hilden, Germany). The compounds are prepared as 50 mM stocks in DMSO and diluted into buffer P1 (50 mM phosphate, pH 7) to a final concentration of 10% DMSO. All further dilutions are done in P2 (P1 with 10% DMSO). Enzyme and compound dilutions are pre-incubated for 10 min at 37° C. and the reaction is started with the addition of pre-warmed (37° C.) nitrocefin at a final concentration of […]. […] The initial velocity is determined and IC50 values are calculated using non-linear regression and sigmoidal dose response analysis with the PRISM 4.0 software (Graphpad Software Inc., San Diego, Calif.).

The target of the next assay is TEM-1 β-lactamase (Escherichia coli, UniProt P62593). Described as above. Format: biochemical. Conditions: 10 min pre-incubation at 37° C., nitrocefin substrate. As for the experimental part:
as §1, §2

Sequence of SHV-1 β-lactamase (P0AD64 whole entry, looked up): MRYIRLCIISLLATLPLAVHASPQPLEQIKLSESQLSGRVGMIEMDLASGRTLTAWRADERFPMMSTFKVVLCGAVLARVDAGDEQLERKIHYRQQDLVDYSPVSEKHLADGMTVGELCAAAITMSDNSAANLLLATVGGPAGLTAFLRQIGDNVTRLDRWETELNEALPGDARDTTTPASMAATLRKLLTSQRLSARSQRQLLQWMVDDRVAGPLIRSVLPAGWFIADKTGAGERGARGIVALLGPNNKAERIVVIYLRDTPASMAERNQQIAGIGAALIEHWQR
Sequence of TEM-1 β-lactamase (P62593 whole entry, looked up): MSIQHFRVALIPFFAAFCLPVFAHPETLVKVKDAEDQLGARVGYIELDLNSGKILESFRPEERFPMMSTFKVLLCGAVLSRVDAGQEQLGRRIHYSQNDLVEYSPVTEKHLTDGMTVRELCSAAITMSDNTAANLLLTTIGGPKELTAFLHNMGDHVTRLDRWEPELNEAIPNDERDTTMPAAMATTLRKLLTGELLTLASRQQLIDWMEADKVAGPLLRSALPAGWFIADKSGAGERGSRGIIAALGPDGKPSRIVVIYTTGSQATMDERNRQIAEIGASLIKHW

For `CC(C)(C)C(=O)OCOC(=O)C1C(=C(C=O)C/C=C/c2ccccc2)O[C@@H]2CC(=O)N12` (stereo partly drawn) [Example 18, (5R)-3-[1-Formyl-4-phenyl-but-3-enylidene]-7-oxo-4-oxa-1-aza-bicyclo[3.2.0]heptane-2-carboxylic acid 2,2-dimethyl-propionyloxymethyl ester], the IC50 amounted to 13.9 nM on SHV-1 β-lactamase and 27.1 nM on TEM-1 β-lactamase.

As for `CC(C)(C)C(=O)OCOC(=O)C1(C/C=C/c2ccccc2)C(=CC=O)O[C@@H]2CC(=O)N21` (stereo partly drawn) [Example 19, (5R)-7-oxo-3-(2-oxo-ethylidene)-2-(3-phenyl-allyl)-4-oxa-1-aza-bicyclo[3.2.0]heptane-2-carboxylic acid 2,2-dimethyl-propionyloxymethyl ester], the IC50 came out at 617 nM on SHV-1 β-lactamase and 871 nM against TEM-1 β-lactamase.

As to `C=CCC(C(=O)O)=C1O[C@@H]2CC(=O)N2C1C(=O)OCc1ccccc1` (stereo partly drawn) [Example 24, (5R)-3-(1-Carboxy-but-3-enylidene)-7-oxo-4-oxa-1-aza-bicyclo[3.2.0]heptane-2-carboxylic acid benzyl ester], the IC50 was 62.2 nM at SHV-1 β-lactamase and 30.6 nM against TEM-1 β-lactamase.

Regarding `O=C(O)C(C/C=C/c1ccccc1)=C1O[C@@H]2CC(=O)N2C1C(=O)OCc1ccccc1` (stereo partly drawn) [Example 26, (5R)-3-[1-Carboxy-4-phenyl-but-3-enylidene]-7-oxo-4-oxa-1-aza-bicyclo[3.2.0]heptane-2-carboxylic acid benzyl ester], the IC50 came to 36.3 nM at SHV-1 β-lactamase and 9.2 nM on TEM-1 β-lactamase.

Consider `C=CCC(C(=O)O)=C1O[C@@H]2CC(=O)N2C1C(=O)OC` (stereo partly drawn) [Example 32, (5R)-3-(1-Carboxy-but-3-enylidene)-7-oxo-4-oxa-1-aza-bicyclo[3.2.0]heptane-2-carboxylic acid methyl ester], for which the IC50 came to 339 nM on SHV-1 β-lactamase and 122 nM on TEM-1 β-lactamase.

For `COC(=O)C1C(=C(C/C=C/c2ccccc2)C(=O)O)O[C@@H]2CC(=O)N12` (stereo partly drawn) [Example 34, (5R)-3-(1-Carboxy-4-phenyl-but-3-enylidene)-7-oxo-4-oxa-1-aza-bicyclo[3.2.0]heptane-2-carboxylic acid methyl ester], the IC50 on SHV-1 β-lactamase was 50.3 nM; on TEM-1 β-lactamase, 21.7 nM.

Take `CC(C)(C)C(=O)OCOC(=O)C1C(=C(C/C=C/c2ccccc2)C(=O)O)O[C@@H]2CC(=O)N12` (stereo partly drawn) [Example 37, (5R)-3-(1-Carboxy-4-phenyl-but-3-enylidene)-7-oxo-4-oxa-1-aza-bicyclo[3.2.0]heptane-2-carboxylic acid 2,2-dimethyl-propionyloxymethyl ester]: the IC50 on SHV-1 β-lactamase was 141 nM; at TEM-1 β-lactamase it was 44.2 nM.

On to `C=CC/C(CO)=C1\O[C@@H]2CC(=O)N2C1C(=O)OCc1ccccc1` (stereo partly drawn) [Example 38, (5R)-3-[1-Hydroxymethyl-but-3-en-(E)-ylidene]-7-oxo-4-oxa-1-aza-bicyclo[3.2.0]heptane-2-carboxylic acid benzyl ester], for which the IC50 at SHV-1 β-lactamase was found to be 6810 nM; against TEM-1 β-lactamase it was 8020 nM.

`C=CC/C(CO)=C1/O[C@@H]2CC(=O)N2C1C(=O)OCc1ccccc1` (stereo partly drawn) [Example 38a, (5R)-3-[1-Hydroxymethyl-but-3-en-(Z)-ylidene]-7-oxo-4-oxa-1-aza-bicyclo[3.2.0]heptane-2-carboxylic acid benzyl ester]: the IC50 on SHV-1 β-lactamase turned out to be 1710 nM; at TEM-1 β-lactamase, 1950 nM.

`O=C(OCc1ccccc1)C1C(=C(CO)C/C=C/c2ccccc2)O[C@@H]2CC(=O)N12` (stereo partly drawn) [Example 39, (5R)-3-(1-Hydroxymethyl-4-phenyl-but-3-enylidene)-7-oxo-4-oxa-1-aza-bicyclo[3.2.0]heptane-2-carboxylic acid benzyl ester]: the IC50 amounted to 5610 nM at SHV-1 β-lactamase and 4120 nM against TEM-1 β-lactamase.

Take `[N-]=[N+]=NCC1C/C(=C2\O[C@@H]3CC(=O)N3C2C(=O)OCc2ccccc2)C(=O)O1` (stereo partly drawn) [Example 48, (5R)-3-(5-Azidomethyl-2-oxo-dihydro-furan-3-ylidene)-7-oxo-4-oxa-1-aza-bicyclo[3.2.0]heptane-2-carboxylic acid benzyl ester]: the IC50 at SHV-1 β-lactamase was 4.2 nM; against TEM-1 β-lactamase it was 2.4 nM.

`CCCC(C(=O)O)=C1O[C@@H]2CC(=O)N2C1C(=O)O` (stereo partly drawn) [Example 51, (5R)-3-(1-Carboxy-butylidene)-7-oxo-4-oxa-1-aza-bicyclo[3.2.0]heptane-2-carboxylic acid]: the IC50 at SHV-1 β-lactamase turned out to be 436 nM; against TEM-1 β-lactamase, 254 nM.

On to `COC(=O)C1C(=C(CCCc2ccccc2)C(=O)O)O[C@@H]2CC(=O)N12` (stereo partly drawn) [Example 53, (5R)-3-(1-Carboxy-4-phenyl-butylidene)-7-oxo-4-oxa-1-aza-bicyclo[3.2.0]heptane-2-carboxylic acid methyl ester], for which the IC50 on SHV-1 β-lactamase was 219 nM; at TEM-1 β-lactamase, 72.8 nM.

With `CCCC(C(=O)O)=C1O[C@@H]2CC(=O)N2C1C(=O)OC` (stereo partly drawn) [Example 54, (5R)-3-(1-Carboxy-butylidene)-7-oxo-4-oxa-1-aza-bicyclo[3.2.0]heptane-2-carboxylic acid methyl ester], the IC50 at SHV-1 β-lactamase worked out at 295 nM; on TEM-1 β-lactamase, 97 nM.

`COC(=O)C(CCCc1ccccc1)=C1O[C@@H]2CC(=O)N2C1C(=O)OC` (stereo partly drawn) [Example 57, (5R)-3-(1-Methoxycarbonyl-4-phenyl-butylidene)-7-oxo-4-oxa-1-aza-bicyclo[3.2.0]heptane-2-carboxylic acid methyl ester]: the results for the IC50 on SHV-1 β-lactamase and against TEM-1 β-lactamase were 22.6 nM and 10.6 nM, respectively.

Turning to `O=C(O)C(CC=CCN(Cc1ccccc1)C(=O)OCc1ccccc1)=C1O[C@@H]2CC(=O)N2C1C(=O)OCc1ccccc1` (stereo partly drawn) [Example 58, (5R)-3-[5-(Benzyl-benzyloxycarbonyl-amino)-1-carboxy-pent-3-enylidene]-7-oxo-4-oxa-1-aza-bicyclo[3.2.0]heptane-2-carboxylic acid benzyl ester], the IC50 is 0.6 nM at SHV-1 β-lactamase and 1.4 nM against TEM-1 β-lactamase.

Take `O=C(OCc1ccccc1)C1C(=C2COC(CI)C2)O[C@@H]2CC(=O)N12` (stereo partly drawn) [Example 59, (5R)-3-[5-Iodomethyl-dihydro-furan-3-ylidene]-7-oxo-4-oxa-1-aza-bicyclo[3.2.0]heptane-2-carboxylic acid benzyl ester]: the values for the IC50 on SHV-1 β-lactamase and against TEM-1 β-lactamase were 3600 nM and 4390 nM, respectively.

Source of the values: patent publication US9120808B2 (NABRIVA THERAPEUTICS AG, priority 2009, dated 2015).
